From ChEMBL document CHEMBL5143581, “Design, synthesis and molecular docking studies of imidazole and benzimidazole linked ethionamide derivatives as inhibitors of InhA and antituberculosis agents” (Bioorg Med Chem Lett, 2022)
Converted amounts (≈) assume the structure as drawn.

Columns and labels:
[1] = system: Mycobacterium tuberculosis; test: Antimycobacterial activity against Mycobacterium tuberculosis H37Rv; format: functional
Vero = test: Cytotoxicity in African green monkey Vero cells assessed as reduction in cell viability; format: toxicity, cell-based; settings: chlorocebus sabaeus

SMILES	MIC [1]	Activity (Vero)
Cn1ccnc1NC(=O)c1cc(C(N)=S)ccn1	15.1 µM (≈ 3.95 µg/mL)	> 100 µM
Cc1ccc2c(c1)nc(NC(=O)c1cc(C(N)=S)ccn1)n2C	3.14 µM (≈ 1.02 µg/mL)	> 100 µM
COc1ccc2c(c1)nc(NC(=O)c1cc(C(N)=S)ccn1)n2C	0.35 µM (≈ 0.119 µg/mL)	> 100 µM
Cc1cn(C)c(NC(=O)c2cc(C(N)=S)ccn2)n1	13.6 µM (≈ 3.75 µg/mL)	> 100 µM
Cn1c(NC(=O)c2cc(C(N)=S)ccn2)nc2cc(O)ccc21	0.27 µM (≈ 0.0884 µg/mL)	> 100 µM
Cn1cc(O)nc1NC(=O)c1cc(C(N)=S)ccn1	0.97 µM (≈ 0.269 µg/mL)	> 100 µM
NC(=S)c1ccnc(C(=O)Nc2nc3ccccc3[nH]2)c1	12.6 µM (≈ 3.73 µg/mL)	> 100 µM
Cn1c(NC(=O)c2cc(C(N)=S)ccn2)nc2ccccc21	6.52 µM (≈ 2.03 µg/mL)	> 100 µM
NC(=S)c1ccnc(C(=O)Nc2ncc[nH]2)c1	23.8 µM (≈ 5.9 µg/mL)	> 100 µM
Cn1cc(C#N)nc1NC(=O)c1cc(C(N)=S)ccn1	1.24 µM (≈ 0.355 µg/mL)	> 100 µM
O=C(O)c1cn(C2CC2)c2cc(N3CCNCC3)c(F)cc2c1=O [CIPROFLOXACIN]	4.73 µM (≈ 1.57 µg/mL)	> 100 µM
CC[C@@H](CO)NCCN[C@@H](CC)CO [ETHAMBUTOL]	5.01 µM (≈ 1.02 µg/mL)	> 100 µM
CCc1cc(C(N)=S)ccn1 [ETHIONAMIDE]	6.63 µM (≈ 1.1 µg/mL)	> 100 µM
NNC(=O)c1ccncc1 [ISONIAZID]	0.36 µM (≈ 0.0494 µg/mL)	> 100 µM
NC(=O)c1cnccn1 [PYRAZINAMIDE]	3.12 µM (≈ 0.384 µg/mL)	> 100 µM
